Data reported in patent US10442763B2, “EBNA1 inhibitors and methods using same” (priority 2015, dated 2019).

Target: T1, His-EBNA1 (DNA binding domain of EBNA1, amino acids 459-607) (Epstein-Barr virus, UniProt P03211)
T1 construct: made in house; host or cells: E. coli
Test: Inhibition of 5'-biotin-oPL4624 binding to His-EBNA1 using Alpha Screen technology
Protocol: Inhibition of 5′-Biotin-oPL4624 Binding to his-EBNA1 Using Alpha Screen Technology
Assays were performed using the DNA binding domain of EBNA1 (amino acids 459-607), which was His-tagged (His-EBNA1) and the self-complementary biotinylated (bt) oligonucleotide with the sequence 5′-bt-[…]-ATGCTACCC-3′ (bt-oPL4624; or 5′-bt-SEQ ID NO: 1). The protein was expressed in E. coli and purified according to Barwell, et al., 1995, J Biol Chem. 270:20556-9.). The bt-oPL4624 oligonucleotide was purchased from Integrated DNA Technologies, Inc (IDT). AlphaScreen donor, acceptor beads and white, opaque 384-well assay plates were purchased from PerkinElmer, Inc.
Assays contained 15 nM His-EBNA1, 0.2 nM bt-oPL4624, 5 μg/mL AlphaScreen streptavidin donor beads and nickel chelate acceptor beads, and a series of concentrations of test compound ranging from 3.2 nM to 100 μM in a total volume of 40 μL assay buffer (25 mM Tris, pH 7.2, 160 mM NaCl, 1 mM MgCl2). His-EBNA1 (30 nM) and bt-oPL4624 (0.4 nM) were preincubated with 10 μg/mL nickel chelate AlphaScreen acceptor bead, or 10 μg/mL streptavidin AlphaScreen donor bead, respectively, for 30 minutes at room temperature in assay buffer. Twenty microliters of His-EBNA1/acceptor bead mix and bt-oPL4624/donor bead mix were transferred to assay plates containing 0.4 μL of 1:3 serial dilutions of test compounds previously prepared in DMSO at concentrations ranging from 0.32 μM to 10 mM. Non-specific binding was determined with 5 μg/mL AlphaScreen acceptor bead in the absence of His-EBNA1. After 2 hr incubation at room temperature, the AlphaScreen signal was measured on the Envision plate reader (PerkinElmer, Inc.) at 680 nm excitation and 570 nm emission. Inhibition values at each concentration of test compound were determined by setting 100% equal to raw data values in the absence of EBNA1 and 0% equal to the raw data values in the presence of EBNA1. Nonlinear regression fits of the inhibition values to a one-site dose-response equation were performed using GraphPad Prism.

T1 sequence (P03211 459-607): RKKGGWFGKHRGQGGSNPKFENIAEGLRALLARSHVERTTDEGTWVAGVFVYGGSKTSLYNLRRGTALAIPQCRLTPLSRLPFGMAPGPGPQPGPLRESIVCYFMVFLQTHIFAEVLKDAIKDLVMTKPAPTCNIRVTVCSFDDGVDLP

SMILES	IC50
O=C(O)c1cccc(C#Cc2ccc3[nH]c(CN4CCS(=O)(=O)CC4)nc(=O)c3c2)c1-c1ccc2cc[nH]c2c1 [Entry 134]	1 to 10 µM
O=C(O)c1cccc(C#Cc2ccc3nc(C(F)(F)F)[nH]c(=O)c3c2)c1-c1ccc2cc[nH]c2c1 [Entry 135]	1 to 10 µM
COc1cccc(C)c1NC(=O)c1cccc(C#Cc2cccc(C(=O)O)c2-c2ccc3cc[nH]c3c2)c1 [Entry 137]	1 to 10 µM
O=C(Nc1ccc(N2CCS(=O)(=O)CC2)cc1)c1cccc(C#Cc2cccc(C(=O)O)c2-c2ccc3cc[nH]c3c2)c1 [Entry 138]	1 to 10 µM
O=C(O)c1cccc(C#Cc2ccccc2)c1-c1cnc2[nH]ccc2c1 [Entry 139]	< 1 µM
O=C(O)c1cccc(C#Cc2ccc(F)cc2)c1-c1cnc2[nH]ccc2c1 [Entry 140]	10 to 100 µM
COc1ccc(C#Cc2cccc(C(=O)O)c2-c2cnc3[nH]ccc3c2)cc1 [Entry 141]	10 to 100 µM
O=C(O)c1cccc(C#Cc2ccc(OC3CCOCC3)cc2)c1-c1cnc2[nH]ccc2c1 [Entry 142]	10 to 100 µM
O=C(O)c1cccc(C#Cc2ccc(OCCC3CCOCC3)cc2)c1-c1ccc2cc[nH]c2c1 [Entry 143]	1 to 10 µM
O=C(O)c1cccc(C#Cc2ccc(OC3CCS(=O)(=O)CC3)cc2)c1-c1ccc2cc[nH]c2c1 [Entry 144]	10 to 100 µM
O=C(O)c1cccc(C#Cc2ccc(CN3CCOCC3)cc2)c1-c1ccc2cc[nH]c2c1 [Entry 145]	1 to 10 µM
CCN1CCN(Cc2ccc(C#Cc3cccc(C(=O)O)c3-c3ccc4cc[nH]c4c3)cc2)CC1 [Entry 146]	10 to 100 µM
CN1CCN(Cc2ccc(C#Cc3cccc(C(=O)O)c3-c3ccc4cc[nH]c4c3)cc2)CC1 [Entry 147]	10 to 100 µM
O=C(O)c1cccc(C#Cc2ccc(CN3CCS(=O)(=O)CC3)cc2)c1-c1ccc2cc[nH]c2c1 [Entry 148]	1 to 10 µM
CN(C)CCN(C)Cc1ccc(C#Cc2cccc(C(=O)O)c2-c2ccc3cc[nH]c3c2)cc1 [Entry 149]	10 to 100 µM
O=C(O)c1cccc(C#Cc2ccc(CN3CCC(CCO)CC3)cc2)c1-c1ccc2cc[nH]c2c1 [Entry 150]	1 to 10 µM
O=C(O)c1cccc(C#Cc2ccc(CN3CCC(CO)CC3)cc2)c1-c1ccc2cc[nH]c2c1 [Entry 151]	10 to 100 µM
CN1CCCN(Cc2ccc(C#Cc3cccc(C(=O)O)c3-c3ccc4cc[nH]c4c3)cc2)CC1 [Entry 152]	1 to 10 µM
O=C(O)c1cccc(C#Cc2ccc(CN3CC(O)C3)cc2)c1-c1ccc2cc[nH]c2c1 [Entry 153]	10 to 100 µM
O=C(O)c1cccc(C#Cc2ccc(CN3CCC(O)CC3)cc2)c1-c1ccc2cc[nH]c2c1 [Entry 154]	10 to 100 µM
COC1CCN(Cc2ccc(C#Cc3cccc(C(=O)O)c3-c3ccc4cc[nH]c4c3)cc2)CC1 [Entry 155]	10 to 100 µM

SMILES	IC50
CN(C)Cc1ccc(C#Cc2cccc(C(=O)O)c2-c2ccc3cc[nH]c3c2)cc1 [Entry 156]	10 to 100 µM
COCCN(C)Cc1ccc(C#Cc2cccc(C(=O)O)c2-c2ccc3cc[nH]c3c2)cc1 [Entry 157]	10 to 100 µM
O=C(O)c1cccc(C#Cc2ccc(CN3CCC(F)(F)CC3)cc2)c1-c1ccc2cc[nH]c2c1 [Entry 158]	1 to 10 µM
O=C(O)c1cccc(C#Cc2ccc(CN3CCCC(F)(F)C3)cc2)c1-c1ccc2cc[nH]c2c1 [Entry 159]	1 to 10 µM
O=C(O)c1cccc(C#Cc2ccc(CN3CCc4ccccc4C3)cc2)c1-c1ccc2cc[nH]c2c1 [Entry 160]	1 to 10 µM
CS(=O)(=O)N1CCN(Cc2ccc(C#Cc3cccc(C(=O)O)c3-c3ccc4cc[nH]c4c3)cc2)CC1 [Entry 161]	10 to 100 µM
O=C(O)c1cccc(C#Cc2ccc(CN3CCCC(C(F)(F)F)C3)cc2)c1-c1ccc2cc[nH]c2c1 (stereo not drawn) [Entry 162]	1 to 10 µM
COC1CCN(Cc2ccc(C#Cc3cccc(C(=O)O)c3-c3ccc4cc[nH]c4c3)cc2)C1 (stereo not drawn) [Entry 163]	10 to 100 µM
CC(C)N1CCN(Cc2ccc(C#Cc3cccc(C(=O)O)c3-c3ccc4cc[nH]c4c3)cc2)CC1 [Entry 164]	10 to 100 µM
O=C(O)c1cccc(C#Cc2ccc(CN3CCN(C4CCCCC4)CC3)cc2)c1-c1ccc2cc[nH]c2c1 [Entry 165]	10 to 100 µM
O=C(O)c1cccc(C#Cc2ccc(CN3CCN(C(=O)C4CC4)CC3)cc2)c1-c1ccc2cc[nH]c2c1 [Entry 166]	1 to 10 µM
O=C(O)c1cccc(C#Cc2ccc(CN3CCNCC3)cc2)c1-c1ccc2cc[nH]c2c1 [Entry 167]	10 to 100 µM
O=C(O)c1cccc(C#Cc2ccc(CN3CCN(S(=O)(=O)c4ccccc4)CC3)cc2)c1-c1ccc2cc[nH]c2c1 [Entry 168]	1 to 10 µM
O=C(O)c1cccc(C#Cc2ccc(CNC3CCS(=O)(=O)CC3)cc2)c1-c1ccc2cc[nH]c2c1 [Entry 169]	10 to 100 µM
O=C(O)c1cccc(C#Cc2ccc(CN3CCN(C4CCCC4)CC3)cc2)c1-c1ccc2cc[nH]c2c1 [Entry 170]	10 to 100 µM
CN(C)C(=O)N1CCN(Cc2ccc(C#Cc3cccc(C(=O)O)c3-c3ccc4cc[nH]c4c3)cc2)CC1 [Entry 171]	10 to 100 µM
O=C(O)c1cccc(C#Cc2ccc(CN3CCN(c4cnccn4)CC3)cc2)c1-c1ccc2cc[nH]c2c1 [Entry 172]	1 to 10 µM
O=C(O)c1cccc(C#Cc2ccc(CN3CCN(c4nccs4)CC3)cc2)c1-c1ccc2cc[nH]c2c1 [Entry 173]	1 to 10 µM
Nc1nc2c(s1)C[C@@H](NCc1ccc(C#Cc3cccc(C(=O)O)c3-c3ccc4cc[nH]c4c3)cc1)CC2 [Entry 174]	1 to 10 µM
Nc1nc2c(s1)C[C@H](NCc1ccc(C#Cc3cccc(C(=O)O)c3-c3ccc4cc[nH]c4c3)cc1)CC2 [Entry 175]	1 to 10 µM
CN1CCN(Cc2ccc(C#Cc3cccc(C(=O)O)c3-c3cnc4[nH]ccc4c3)cc2)CC1 [Entry 176]	10 to 100 µM

SMILES	IC50
COC1CCN(Cc2ccc(C#Cc3cccc(C(=O)O)c3-c3cnc4[nH]ccc4c3)cc2)CC1 [Entry 177]	100 to 1000 µM
COC1CCN(Cc2ccc(C#Cc3cccc(C(=O)O)c3-c3ccc4[nH]ccc4c3)cc2)CC1 [Entry 178]	10 to 100 µM
CS(=O)(=O)N1CCN(Cc2ccc(C#Cc3cccc(C(=O)O)c3-c3ccc4[nH]ccc4c3)cc2)CC1 [Entry 179]	10 to 100 µM
CS(=O)(=O)N1CCN(Cc2ccc(C#Cc3cccc(C(=O)O)c3-c3cnc4[nH]ccc4c3)cc2)CC1 [Entry 180]	1 to 10 µM
O=C(O)c1cccc(C#Cc2ccc(CN3CCC(F)(F)CC3)cc2)c1-c1ccc2[nH]ccc2c1 [Entry 181]	1 to 10 µM
CN1CCN(Cc2ccc(C#Cc3cccc(C(=O)O)c3-c3ccc4[nH]ccc4c3)cc2)CC1 [Entry 182]	1 to 10 µM
CCS(=O)(=O)N1CCN(Cc2ccc(C#Cc3cccc(C(=O)O)c3-c3ccc4cc[nH]c4c3)cc2)CC1 [Entry 183]	10 to 100 µM
O=C(O)c1cccc(C#Cc2ccc(OC3CCS(=O)(=O)CC3)cc2)c1-c1ccc2[nH]ccc2c1 [Entry 184]	1 to 10 µM
O=C(O)c1cccc(C#Cc2ccc(OC3CCS(=O)(=O)CC3)cc2)c1-c1ccc2cn[nH]c2c1 [Entry 185]	10 to 100 µM
O=C(O)c1cccc(C#Cc2ccc(COC3CCOCC3)cc2F)c1-c1ccc2cc[nH]c2c1 [Entry 186]	1 to 10 µM
O=C(O)c1cccc(C#Cc2ccc(COC3CCS(=O)(=O)CC3)cc2F)c1-c1ccc2cc[nH]c2c1 [Entry 187]	10 to 100 µM
CS(=O)(=O)N1CC2(CCN(Cc3ccc(C#Cc4cccc(C(=O)O)c4-c4ccc5cc[nH]c5c4)cc3)CC2)C1 [Entry 188]	10 to 100 µM
CS(=O)(=O)N1CC2CN(Cc3ccc(C#Cc4cccc(C(=O)O)c4-c4ccc5cc[nH]c5c4)cc3)CC2C1 (stereo not drawn) [Entry 189]	10 to 100 µM
O=C(O)c1cccc(C#Cc2ccc(CN3CCN(S(=O)(=O)C4CC4)CC3)cc2)c1-c1ccc2cc[nH]c2c1 [Entry 190]	10 to 100 µM
CC(C)S(=O)(=O)N1CCN(Cc2ccc(C#Cc3cccc(C(=O)O)c3-c3ccc4cc[nH]c4c3)cc2)CC1 [Entry 191]	1 to 10 µM
CS(=O)(=O)N1CCC2(CC1)CN(Cc1ccc(C#Cc3cccc(C(=O)O)c3-c3ccc4cc[nH]c4c3)cc1)C2 [Entry 192]	10 to 100 µM
O=C(O)c1cccc(C#Cc2ccc(OC3CCOCC3)cc2)c1-c1ccc2[nH]ccc2c1 [Entry 193]	1 to 10 µM
CN(C)S(=O)(=O)NC(=O)c1cccc(C#Cc2ccc(COC3CCOCC3)cc2)c1-c1ccc2cc[nH]c2c1 [Entry 194]	1 to 10 µM
CS(=O)(=O)NC(=O)c1cccc(C#Cc2ccc(COC3CCOCC3)cc2)c1-c1ccc2cc[nH]c2c1 [Entry 195]	10 to 100 µM
C(#Cc1cccc(-c2nnn[nH]2)c1-c1ccc2cc[nH]c2c1)c1ccc(COC2CCOCC2)cc1 [Entry 196]	1 to 10 µM
O=C(NCc1ccc(C#Cc2cccc(C(=O)O)c2-c2ccc3cc[nH]c3c2)cc1)c1ccccc1 [Entry 197]	1 to 10 µM
